How the values were obtained:
K-562 = K-562 (Leukemia), 48 hours, SRB
RPMI-8226 = RPMI-8226 (Leukemia), 48 hours, SRB; for CC50: read-out: LC50
SR = SR (Leukemia), 48 hours, SRB; for CC50: read-out: LC50
A549/ATCC = A549/ATCC (Non-Small Cell Lung Cancer), 48 hours, SRB; for CC50: read-out: LC50
EKVX = EKVX (Non-Small Cell Lung Cancer), 48 hours, SRB; for CC50: read-out: LC50
HOP-62 = HOP-62 (Non-Small Cell Lung Cancer), 48 hours, SRB; for CC50: read-out: LC50
NCI-H460 = NCI-H460 (Non-Small Cell Lung Cancer), 48 hours, SRB; for CC50: read-out: LC50
COLO 205 = COLO 205 (Colon Cancer), 48 hours, SRB; for CC50: read-out: LC50
SW-620 = SW-620 (Colon Cancer), 48 hours, SRB
SF-295 = SF-295 (CNS Cancer), 48 hours, SRB; for CC50: read-out: LC50
SNB-19 = SNB-19 (CNS Cancer), 48 hours, SRB; for CC50: read-out: LC50
LOX IMVI = LOX IMVI (Melanoma), 48 hours, SRB
M14 = M14 (Melanoma), 48 hours, SRB; for CC50: read-out: LC50
UACC-257 = UACC-257 (Melanoma), 48 hours, SRB; for CC50: read-out: LC50
OVCAR-4 = OVCAR-4 (Ovarian Cancer), 48 hours, SRB; for CC50: read-out: LC50
OVCAR-8 = OVCAR-8 (Ovarian Cancer), 48 hours, SRB; for CC50: read-out: LC50
786-0 = 786-0 (Renal Cancer), 48 hours, SRB; for CC50: read-out: LC50
ACHN = ACHN (Renal Cancer), 48 hours, SRB; for CC50: read-out: LC50
RXF 393 = RXF 393 (Renal Cancer), 48 hours, SRB; for CC50: read-out: LC50
TK-10 = TK-10 (Renal Cancer), 48 hours, SRB; for CC50: read-out: LC50
UO-31 = UO-31 (Renal Cancer), 48 hours, SRB; for CC50: read-out: LC50
PC-3 = PC-3 (Prostate Cancer), 48 hours, SRB; for CC50: read-out: LC50
NCI/ADR-RES = NCI/ADR-RES (Breast Cancer), 48 hours, SRB; for CC50: read-out: LC50
MDA-MB-231/ATCC = MDA-MB-231/ATCC (Breast Cancer), 48 hours, SRB; for CC50: read-out: LC50
MDA-MB-435 = MDA-MB-435 (Breast Cancer), 48 hours, SRB; for CC50: read-out: LC50

For `CN(C)c1cccc2c(S(=O)(=O)NCCCCCCCCCCOc3ccc4c(c3)[N+]([O-])=C3C4=C[C@@]45NC(=O)C6(CCCN6C4=O)CC5C3(C)C)cccc12` (stereo partly shown) [Dansyl Analogue], the TGI (K-562) was 64400 nM, the GI50 (RPMI-8226) was 282 nM and the TGI (RPMI-8226) was greater than 100000 nM. The CC50 (RPMI-8226) was greater than 100000 nM, the GI50 (SR) was 371 nM and the TGI (SR) was 1940 nM. For the same compound, the CC50 (SR) was 23700 nM, the GI50 (A549/ATCC) was 2170 nM and the TGI (A549/ATCC) was 5370 nM. It also gave a CC50 (A549/ATCC) of 18100 nM, a GI50 (EKVX) of 540 nM and a TGI (EKVX) of 3630 nM. The CC50 (EKVX) was 37000 nM, the GI50 (HOP-62) was 2380 nM and the TGI (HOP-62) was 4640 nM. For the same compound, the CC50 (HOP-62) was 9020 nM, the GI50 (NCI-H460) was 700 nM and the TGI (NCI-H460) was 1990 nM. The CC50 (NCI-H460) was 4640 nM, the GI50 (COLO 205) was 328 nM and the TGI (COLO 205) was 1140 nM. It also gave a CC50 (COLO 205) of 3860 nM, a GI50 (SW-620) of 266 nM and a GI50 (SF-295) of 1730 nM. The TGI (SF-295) was 4630 nM, the CC50 (SF-295) was 49400 nM and the GI50 (SNB-19) was 359 nM. For the same compound, the TGI (SNB-19) was 1440 nM, the CC50 (SNB-19) was 4100 nM and the GI50 (LOX IMVI) was 166 nM. The TGI (LOX IMVI) was 310 nM, the CC50 (LOX IMVI; read-out: LC50) was 579 nM and the GI50 (M14) was 423 nM. It also gave a TGI (M14) of 2030 nM, a CC50 (M14) of 13600 nM and a GI50 (UACC-257) of 1020 nM. The TGI (UACC-257) was 2810 nM, the CC50 (UACC-257) was 7740 nM and the GI50 (OVCAR-4) was 348 nM. For the same compound, the TGI (OVCAR-4) was 7420 nM, the CC50 (OVCAR-4) was 32200 nM and the GI50 (OVCAR-8) was 759 nM. It also gave a TGI (OVCAR-8) of 11000 nM, a CC50 (OVCAR-8) greater than 100000 nM and a GI50 (786-0) of 325 nM. It also gave a TGI (786-0) of 1070 nM, a CC50 (786-0) of 5210 nM and a GI50 (ACHN) of 736 nM. For the same compound, the TGI (ACHN) was 2700 nM, the CC50 (ACHN) was 8560 nM and the GI50 (RXF 393) was 611 nM. For the same compound, the TGI (RXF 393) was 5920 nM, the CC50 (RXF 393) was 44400 nM and the GI50 (TK-10) was 716 nM. For the same compound, the TGI (TK-10) was 2810 nM, the CC50 (TK-10) was 9660 nM and the GI50 (UO-31) was 480 nM. For the same compound, the TGI (UO-31) was 2080 nM, the CC50 (UO-31) was 6480 nM and the GI50 (PC-3) was 334 nM. For the same compound, the TGI (PC-3) was 1820 nM, the CC50 (PC-3) was 41700 nM and the GI50 (NCI/ADR-RES) was 28200 nM. For the same compound, the TGI (NCI/ADR-RES) was greater than 100000 nM, the CC50 (NCI/ADR-RES) was greater than 100000 nM and the GI50 (MDA-MB-231/ATCC) was 242 nM. The TGI (MDA-MB-231/ATCC) was 584 nM, the CC50 (MDA-MB-231/ATCC) was 40500 nM and the GI50 (MDA-MB-435) was 382 nM. It also gave a TGI (MDA-MB-435) of 1920 nM and a CC50 (MDA-MB-435) of 23100 nM.
Work on `CC1(C)C=Cc2c(ccc3c4c(n(O)c23)C(C)(C)C2CC35CCCN3C(=O)C2(NC5=O)C4SCC(NC(=O)CCC(N)C(=O)O)C(=O)NCC(=O)O)O1` (stereo not shown) [Glutathione Adduct] yielded a GI50 (K-562) of 1010 nM, a TGI (K-562) of 4660 nM and a CC50 (K-562; read-out: LC50) greater than 50000 nM. The GI50 (RPMI-8226) was 159 nM, the TGI (RPMI-8226) was 1140 nM and the CC50 (RPMI-8226) was greater than 50000 nM. The GI50 (SR) was 228 nM, the TGI (SR) was 1280 nM and the CC50 (SR) was 16700 nM. It also gave a GI50 (A549/ATCC) of 1370 nM, a TGI (A549/ATCC) of 3940 nM and a CC50 (A549/ATCC) of 15800 nM. It also gave a GI50 (EKVX) of 1110 nM, a TGI (EKVX) of 5400 nM and a CC50 (EKVX) of 18900 nM. It also gave a GI50 (HOP-62) of 6670 nM, a TGI (HOP-62) of 1380 nM and a CC50 (HOP-62) of 28600 nM. The GI50 (NCI-H460) was 1110 nM, the TGI (NCI-H460) was 2410 nM and the CC50 (NCI-H460) was 23200 nM. For the same compound, the GI50 (COLO 205) was 649 nM, the TGI (COLO 205) was 15100 nM and the CC50 (COLO 205) was 3510 nM. It also gave a GI50 (SW-620) of 713 nM, a TGI (SW-620) of 1500 nM and a CC50 (SW-620; read-out: LC50) of 3810 nM. For the same compound, the GI50 (SF-295) was 1450 nM, the TGI (SF-295) was 6580 nM and the CC50 (SF-295) was 24400 nM. For the same compound, the GI50 (SNB-19) was 1430 nM, the TGI (SNB-19) was 6240 nM and the CC50 (SNB-19) was 18700 nM. The GI50 (LOX IMVI) was 806 nM, the TGI (LOX IMVI) was 1560 nM and the GI50 (M14) was 996 nM. For the same compound, the TGI (M14) was 2630 nM, the CC50 (M14) was 11200 nM and the GI50 (UACC-257) was 1070 nM. The TGI (UACC-257) was 5430 nM, the CC50 (UACC-257) was 17300 nM and the GI50 (OVCAR-4) was 742 nM. For the same compound, the TGI (OVCAR-4) was 2490 nM, the CC50 (OVCAR-4) was 10100 nM and the GI50 (OVCAR-8) was 1600 nM. It also gave a TGI (OVCAR-8) of 6380 nM, a CC50 (OVCAR-8) of 29800 nM and a GI50 (786-0) of 1120 nM. The TGI (786-0) was 2440 nM, the CC50 (786-0) was 6030 nM and the GI50 (ACHN) was 961 nM. It also gave a TGI (ACHN) of 3220 nM, a CC50 (ACHN) of 12300 nM and a GI50 (RXF 393) of 829 nM. It also gave a TGI (RXF 393) of 1750 nM, a CC50 (RXF 393) of 3690 nM and a GI50 (TK-10) of 1090 nM. The TGI (TK-10) was 5460 nM, the CC50 (TK-10) was 17400 nM and the GI50 (UO-31) was 779 nM. It also gave a TGI (UO-31) of 4070 nM, a CC50 (UO-31) of 15000 nM and a GI50 (PC-3) of 906 nM. For the same compound, the TGI (PC-3) was 2590 nM, the CC50 (PC-3) was 11600 nM and the GI50 (NCI/ADR-RES) was 3940 nM. The TGI (NCI/ADR-RES) was 14000 nM, the CC50 (NCI/ADR-RES) was 44700 nM and the GI50 (MDA-MB-231/ATCC) was 931 nM. The TGI (MDA-MB-231/ATCC) was 3680 nM, the CC50 (MDA-MB-231/ATCC) was 14700 nM and the GI50 (MDA-MB-435) was 1100 nM. For the same compound, the TGI (MDA-MB-435) was 5200 nM and the CC50 (MDA-MB-435) was 22000 nM.
